± gives the expanded uncertainty stated by the source.
Test: molar enthalpy of vaporization or sublimation
Details: 298.15 K; Crystal; drop microcalorimetry

Structure (SMILES)	molar enthalpy [kcal/mol]
O=[N+]([O-])c1cc(Cl)cc(Cl)c1 [1,3-dichloro-5-nitrobenzene]	19.9 ± 0.717
O=[N+]([O-])c1ccc(Cl)c(Cl)c1 [3,4-dichloro-1-nitrobenzene]	20.5 ± 1.2
O=[N+]([O-])c1cc(Cl)ccc1Cl [1,4-dichloro-2-nitrobenzene]	20.9 ± 1.2
O=[N+]([O-])c1ccc(Cl)cc1Cl [1,3-dichloro-4-nitrobenzene]	21 ± 0.813

Source: the NIST ThermoML archive (doi:10.1016/j.jct.2009.03.001)
